Here are results for 27 compounds from patent publication US9273057B2 (Bristol-Myers Squibb Company, priority 2012, dated 2016).

Structures can show the parent of a compound that is named as a salt.

CK2A1 (CK2α/β), sequence (P68400 whole entry, species assumed): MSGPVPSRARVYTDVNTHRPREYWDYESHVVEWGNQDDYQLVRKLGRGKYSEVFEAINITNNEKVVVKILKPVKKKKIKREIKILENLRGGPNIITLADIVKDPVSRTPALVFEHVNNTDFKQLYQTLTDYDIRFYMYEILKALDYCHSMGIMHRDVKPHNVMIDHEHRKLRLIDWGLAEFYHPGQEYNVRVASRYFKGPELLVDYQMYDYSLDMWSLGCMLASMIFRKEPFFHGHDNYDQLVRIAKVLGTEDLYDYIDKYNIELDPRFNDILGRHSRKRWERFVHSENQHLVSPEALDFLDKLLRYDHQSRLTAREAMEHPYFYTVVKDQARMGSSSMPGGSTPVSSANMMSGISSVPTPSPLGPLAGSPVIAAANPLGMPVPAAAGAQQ
CK2A1 (CK2α/β), sequence (P67870 whole entry partner, species assumed): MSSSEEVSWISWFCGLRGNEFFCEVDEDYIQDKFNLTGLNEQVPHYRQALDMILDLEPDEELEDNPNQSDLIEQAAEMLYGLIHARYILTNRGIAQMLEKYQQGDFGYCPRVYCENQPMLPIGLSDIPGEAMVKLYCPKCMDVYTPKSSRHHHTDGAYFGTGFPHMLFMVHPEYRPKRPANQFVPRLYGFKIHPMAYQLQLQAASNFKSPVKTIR

This test has as its target CK2A1 (CK2α/β) (Homo sapiens, UniProt P68400). As to the kind of experiment: CK2 kinase assay, CK2A1 (CK2α/β). The test is classed as biochemical. As to conditions: Table A; read-out: CK2A1 (CK2α/β) (IC50).
`N#Cc1cc(Nc2nc(NC3CC3)c3ncc(C#N)n3n2)c(Cl)c(N2CCN(CC(O)CF)CC2)c1` (racemic) [Example 66, (+/−) 2-((2-chloro-5-cyano-3-(4-(3-fluoro-2-hydroxypropyl)-1-piperazinyl)phenyl)amino)-4-(cyclopropylamino) imidazo[2,1-f][1,2,4] triazine-7-carbonitrile]: the IC50 turned out to be 580 pM.
For `CCNc1nc(Nc2ccc3c(c2)c(C#N)cn3C2CCN(C3CN(C(=O)OC)C3)CC2)nn2c(C#N)cnc12` [Example 836, methyl 3-(4-(3-cyano-5-((7-cyano-4-(ethylamino)imidazo[2,1-f][1,2,4]triazin-2-yl)amino)-1H-indol-1-yl)piperidin-1-yl)azetidine-1-carboxylate], the IC50 is 1440 pM.
Then `CS(=O)(=O)NCC1CN(c2cc(C#N)cc(Nc3nc(NC4CC4)c4ncc(C#N)n4n3)c2Cl)CCO1` (racemic) [Example 700, (+/−)-N-((4-(2-chloro-5-cyano-3-((7-cyano-4-(cyclopropylamino)imidazo[2,1-f][1,2,4]triazin-2-yl)amino)phenyl)morpholin-2-yl)methyl)methanesulfonamide], with 570 pM; and `CCNc1nc(Nc2ccc3c(c2)c(C#N)cn3C2CCN([C@H]3COC[C@@H]3O)CC2)nn2c(C#N)cnc12` [Example 827, 2-((3-cyano-1-(1-((3S,4R)-4-hydroxytetrahydrofuran-3-yl)piperidin-4-yl)-1H-indol-5-yl)amino)-4-(ethylamino)imidazo[2,1-f][1,2,4]triazine-7-carbonitrile], with 750 pM; and `N#Cc1cnc2c(NC3CC3)nc(Nc3cc(C(F)F)cc(N4CCN(C5CCOC5)CC4)c3Cl)nn12` (racemic) [Example 265, (+/−) 2-(2-chloro-5-(difluoromethyl)-3-(4-(tetrahydrofuran-3-yl)piperazin-1-yl)phenylamino)-4-(cyclopropylamino)imidazo[1,2-f][1,2,4]triazine-7-carbonitrile], with 3490 pM.
Under `COCCNCC(O)c1cc(C#N)cc(Nc2nc(NC3CC3)c3ncc(C#N)n3n2)c1Cl` (stereo not drawn) [Example 685, 2-((2-chloro-5-cyano-3-(1-hydroxy-2-((2-methoxyethyl)amino)ethyl)phenyl)amino)-4-(cyclopropylamino)imidazo[2,1-f][1,2,4]triazine-7-carbonitrile] stands 950 pM.
As for `CCNc1nc(Nc2cc(C#N)cc(C3CNC3)c2Cl)nn2c(C#N)cnc12` [Example 367, 2-((3-(azetidin-3-yl)-2-chloro-5-cyanophenyl)amino)-4-(ethylamino)imidazo[2,1-f][1,2,4]triazine-7-carbonitrile], the IC50 was found to be 1170 pM.
`COCCOC(=O)N1CCC(N2CCN(c3cc(C#N)cc(Nc4nc(NC5CC5)c5ncc(C#N)n5n4)c3Cl)CC2)C1` (stereo not drawn) [Example 579, 2-methoxyethyl 3-[4-(2-chloro-5-cyano-3-{[7-cyano-4-(cyclopropylamino)imidazo[2,1-f][1,2,4]triazin-2-yl]amino}phenyl)piperazin-1-yl]pyrrolidine-1-carboxylate]: the IC50 came out at 4100 pM.
Then `N#Cc1cc(Nc2nc(NC3CC3)c3ncc(C#N)n3n2)c(Cl)c(N2CCN(C3CC3)CC2)c1` [Example 593, 2-{[2-chloro-5-cyano-3-(4-cyclopropylpiperazin-1-yl)phenyl]amino}-4-(cyclopropylamino)imidazo [2,1-f][1,2,4]triazine-7-carbonitrile], with 1350 pM; and `CN1C(C)(C)CC(NC2CCN(c3cc(C#N)cc(Nc4nc(NC5CC5)c5ncc(C#N)n5n4)c3Cl)CC2)CC1(C)C` [Example 124, 2-((2-chloro-5-cyano-3-(4-((1,2,2,6,6-pentamethyl-4-piperidinyl)amino)-1-piperidinyl)phenyl)amino)-4-(cyclopropylamino)imidazo [2,1-f][1,2,4]triazine-7-carbonitrile], with 1010 pM; and `N#Cc1cc(Nc2nc(NC3CC3)c3ncc(C#N)n3n2)c(Cl)c(N2CC[C@@H](N3CCOCC3)[C@H](O)C2)c1` (racemic) [Example 306, (+/−)-2-((2-chloro-5-cyano-3-((3R,4R)-3-hydroxy-4-morpholinopiperidin-1-yl)phenyl)amino)-4-(cyclopropylamino)imidazo[2,1-f][1,2,4]triazine-7-carbonitrile], with 1290 pM.
Under `COCC(O)CN1CCN(c2cc(C(F)F)cc(Nc3nc(NC4CC4)c4ncc(C#N)n4n3)c2Cl)CC1` (racemic) [Example 250, (+/−) 2-((2-chloro-5-(difluoromethyl)-3-(4-(2-hydroxy-3-methoxypropyl)-1-piperazinyl)phenyl)amino)-4-(cyclopropylamino)imidazo[2,1-f][1,2,4]triazine-7-carbonitrile] stands 730 pM.
Under `CS(=O)(=O)N1CC(N2CCC(c3cc(C#N)cc(Nc4nc(NC5CC5)c5ncc(C#N)n5n4)c3Cl)CC2)C1` [Example 321, 2-((2-chloro-5-cyano-3-(1-(1-(methylsulfonyl)azetidin-3-yl)piperidin-4-yl)phenyl)amino)-4-(cyclopropylamino)imidazo[2,1-f][1,2,4]triazine-7-carbonitrile] stands 660 pM.
Consider `CC(=O)c1cc(C#N)cc(Nc2nc(NC3CC3)c3ncc(C#N)n3n2)c1Cl` [Example 675, 2-((3-acetyl-2-chloro-5-cyanophenyl)amino)-4-(cyclopropylamino)imidazo[2,1-f][1,2,4]triazine-7-carbonitrile], for which the IC50 came out at 240 pM.
Under `CCNc1nc(Nc2cc(C#N)cc(N3CC[C@@H](NC(=O)OC)[C@H](OC(=O)[C@@H](N)Cc4cnc[nH]4)C3)c2Cl)nn2c(C#N)cnc12` [Example 809, (S)-(3R,4R)-1-(2-chloro-5-cyano-3-((7-cyano-4-(ethylamino)imidazo[2,1-f][1,2,4]triazin-2-yl)amino)phenyl)-4-((methoxycarbonyl)amino)piperidin-3-yl 2-amino-3-(1H-imidazol-5-yl)propanoate dihydrochloride] stands 1000 pM; under `N#Cc1cc(Nc2nc(NC3CC3)c3ncc(C#N)n3n2)c(Cl)c(N2CCNCC2=O)c1` [Example 628, 2-((2-chloro-5-cyano-3-(2-oxopiperazin-1-yl)phenyl)amino)-4-(cyclopropylamino)imidazo[2,1-f][1,2,4]triazine-7-carbonitrile], 9850 pM.
For `CC(O)CCc1cc(Cl)c(Nc2nc(NC3CC3)c3ncc(C#N)n3n2)cc1C#N` (stereo not drawn) [Example 722, 2-{[2-chloro-5-cyano-4-(3-hydroxybutyl)phenyl]amino}-4-(cyclopropylamino)imidazo [2,1-f][1,2,4]triazine-7-carbonitrile], the IC50 worked out at 160 pM.
For `N#Cc1cc(Nc2nc(NC3CC3)c3ncc(C#N)n3n2)c(Cl)c(N2CCN(C3CN(C(=O)CC4CCOCC4)C3)CC2)c1` [Example 483, 2-{[2-chloro-5-cyano-3-(4-{1-[2-(oxan-4-yl)acetyl]azetidin-3-yl}piperazin-1-yl)phenyl]amino}-4-(cyclopropylamino)imidazo[2,1-f][1,2,4]triazine-7-carbonitrile], the IC50 worked out at 870 pM.
As to `CS(=O)(=O)CCN1CC(N2CCN(c3cc(C#N)cc(Nc4nc(NC5CC5)c5ncc(C#N)n5n4)c3Cl)CC2)C1` [Example 70], the IC50 was 540 pM.
For `N#Cc1cc(Nc2nc(NC3CC3)c3ncc(C#N)n3n2)c(Cl)c(C2CCN(CC(N)=O)CC2)c1` [Example 220, 2-[4-(2-chloro-5-cyano-3-{[7-cyano-4-(cyclopropylamino)imidazo[2,1-f][1,2,4]triazin-2-yl]amino}phenyl)piperidin-1-yl]acetamide], the IC50 was determined as 700 pM.
Consider `CCNc1nc(Nc2cc(C#N)cc(N3CC[C@@H](NC(=O)OC)[C@H](OC(=O)CCCOP(=O)(O)O)C3)c2Cl)nn2c(C#N)cnc12` [Example 343, (3R,4R)-1-(2-chloro-5-cyano-3-((7-cyano-4-(ethylamino)imidazo[2,1-f][1,2,4]triazin-2-yl)amino)phenyl)-4-((methoxycarbonyl)amino)piperidin-3-yl 4-(phosphonooxy)butanoate], for which the IC50 stood at 3000 pM.
In the case of `CC1(CN2CCN(c3cc(C(F)F)cc(Nc4nc(NC5CC5)c5ncc(C#N)n5n4)c3Cl)CC2)COC1` [Example 264, 2-((2-chloro-5-(difluoromethyl)-3-(4-((3-methyl-3-oxetanyl)methyl)-1-piperazinyl)phenyl)amino)-4-(cyclopropylamino)imidazo[2,1-f][1,2,4]triazine-7-carbonitrile], the IC50 amounted to 2970 pM.
Regarding `N#Cc1cc(Nc2nc(NC3CC3)c3ncc(C#N)n3n2)c(Cl)c(N2CCN(C(=O)CC3CC3)CC2)c1` [Example 86], the IC50 stood at 720 pM.
Take `CN(CCO)CC(=O)Nc1cc(C#N)cc(Nc2nc(NC3CC3)c3ncc(C#N)n3n2)c1Cl` [Example 619, N-(2-chloro-5-cyano-3-((7-cyano-4-(cyclopropylamino)imidazo[2,1-f][1,2,4]triazin-2-yl)amino)phenyl)-2-((2-hydroxyethyl)(methyl)amino)acetamide]: the IC50 worked out at 1660 pM.
Then `C[C@@H](CN1CCN(c2cc(C#N)cc(Nc3nc(NC4CC4)c4ncc(C#N)n4n3)c2Cl)CC1)NS(C)(=O)=O` [Example 69, N-((1S)-2-(4-(2-chloro-5-cyano-3-((7-cyano-4-(cyclopropylamino)imidazo[2,1-f][1,2,4]triazin-2-yl)amino)phenyl)-1-piperazinyl)-1-methylethyl) methanesulfonamide], with 470 pM.
On to `N#Cc1cc(Nc2nc(NC3CC3)c3ncc(C#N)n3n2)c(Cl)c(C2CCN(C(=O)C3CC3)CC2)c1` [Example 236, 2-((2-chloro-5-cyano-3-(1-(cyclopropylcarbonyl)-4-piperidinyl)phenyl)amino)-4-(cyclopropylamino)imidazo[2,1-f][1,2,4]triazine-7-carbonitrile], for which the IC50 was determined as 780 pM.
On to `CC1(C(=O)N2CC(N3CCN(c4cc(C#N)cc(Nc5nc(NC6CC6)c6ncc(C#N)n6n5)c4Cl)CC3)C2)COC1` [Example 515, 2-[(2-chloro-5-cyano-3-{4-[1-(3-methyloxetane-3-carbonyl)azetidin-3-yl]piperazin-1-yl}phenyl)amino]-4-(cyclopropylamino)imidazo[2,1-f][1,2,4]triazine-7-carbonitrile], for which the IC50 came to 4840 pM.
